Values quoted from earlier work as cited in patent publication US20190008969A1, “COMPOSITIONS FOR DRUG DELIVERY” (Tioga Research, Inc., priority 2017, published 2019).

Settings: spray format at 0.25 wt %

Compound: C[C@@H]1C[C@H]2[C@@H]3CCC4=CC(=O)C=C[C@]4(C)[C@@]3(F)[C@@H](O)C[C@]2(C)[C@H]1C(=O)CO [desoximetasone, (8S,9S,10S,11S,13S,14S,16R,17S)-9-fluoro-11-hydroxy-17-(2-hydroxyacetyl)-10,13,16-trirmethyl-7,8,11,12,14,15,16,17-octahydro-6H-cyclopenta[a]phenanthren-3-one]
- Efficacy in treating psoriasis: efficacious
- Safety in treating psoriasis: safe
